Measurements: patent publication US11214803B2, “Modulators of YAP1 expression” (Ionis Pharmaceuticals, Inc., priority 2019, dated 2022)
Strand notation (5' to 3'): a small letter for the sugar, then the base; units joined by * are phosphorothioate-linked, units joined directly phosphodiester-linked; [ ] holds rarer units or linkages, { } end groups; capitals alone tell only the bases. k = constrained ethyl (cEt); [5mC] = 5-methylcytosine; d = 2'-deoxy (DNA)

system: Yap1 mRNA; assay: Antisense inhibition of human Yap1 in A-431 cells by cEt gapmers, single dose (Example 1, RTS4814); format: cell-based; conditions: A-431 cells, 5,000 cells per well, free uptake, 2,000 nM modified oligonucleotide, approx. 48 hours, RTS4814, normalized to RIBOGREEN; Table 3
Method in brief: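 Free uptake of 2,000 nM 3-10-3 cEt gapmer (16-mer, full phosphorothioate, 5-methylcytosines) in A-431 cells for ~48 h. Yap1 mRNA quantified by qRT-PCR with set RTS4814, normalized to total RNA (RiboGreen), and expressed as % of untreated control; asterisked values target the amplicon region.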

Row | Substance | YAP1 (% UTC)
1 | 715414 (kA*kA*k[5mC]*dA*dT*dG*d[5mC]*dT*dG*dT*dG*dG*dA*kG*kT*k[5mC]; antisense) [Compound 715414] | 31
2 | 715405 (kT*kG*kA*dA*dG*dA*dA*dG*dG*dA*dG*dT*d[5mC]*kG*kG*kG; antisense) [Compound 715405] | 60
3 | 715408 (kG*k[5mC]*kG*dG*d[5mC]*dT*dT*dG*dA*dA*dG*dA*dA*kG*kG*kA; antisense) [Compound 715408] | 60
4 | 715444 (antisense kT*k[5mC]*k[5mC]*d[5mC]*dT*dG*dT*dG*dG*dG*d[5mC]*dT*d[5mC]*kT*kG*kG) [Compound 715444] | 84
5 | 715516 (k[5mC]*k[5mC]*kT*dA*dT*dG*dA*dG*dT*d[5mC]*dA*dA*d[5mC]*k[5mC]*kT*kG; antisense) [Compound 715516] | 77
6 | 715522 (kA*k[5mC]*kT*d[5mC]*dT*dT*d[5mC]*dT*dT*dT*d[5mC]*d[5mC]*dA*k[5mC]*kT*k[5mC]; antisense) [Compound 715522] | 87
7 | 715417 (kG*kA*kG*d[5mC]*dT*d[5mC]*dG*dA*dA*d[5mC]*dA*dT*dG*k[5mC]*kT*kG; antisense) [Compound 715417] | 104
8 | 715510 (antisense kA*kT*kT*dT*dG*d[5mC]*dT*dG*dT*dG*d[5mC]*dT*dG*kG*kG*kA) [Compound 715510] | 22
9 | 715504 (antisense kT*kG*kG*dT*dT*dT*dA*dT*dT*dG*dT*dA*dA*kA*kA*kG) [Compound 715504] | 70
10 | 715552 (kA*kA*kA*dT*dA*dG*dG*dA*dA*dG*dT*dT*dG*kT*kT*kG; antisense) [Compound 715552] | 86
11 | 715555 (kG*kT*kT*dA*dT*dT*d[5mC]*dA*dG*d[5mC]*dA*dG*d[5mC]*kT*kT*kA; antisense) [Compound 715555] | 21
12 | 715507 (antisense kT*kG*kG*dG*dA*dT*dT*dG*dA*dT*dA*dT*dT*k[5mC]*k[5mC]*kG) [Compound 715507] | 95
13 | 715564 (k[5mC]*kA*kA*dG*d[5mC]*dA*d[5mC]*dA*d[5mC]*dA*dA*d[5mC]*dT*k[5mC]*kA*kG; antisense) [Compound 715564] | 75

same assay, conditions: Table 1; A-431 cells, free uptake, 2,000 nM, approximately 48 hours, RTS4814; Yap1 mRNA relative to untreated control cells

Row | Substance | YAP1 (% UTC)
14 | 715511 (antisense kT*k[5mC]*k[5mC]*dT*dG*dA*d[5mC]*dA*dT*dT*dT*dT*dG*kG*kA*kG) [Compound 715511] | 107
15 | 715580 (kG*k[5mC]*k[5mC]*dT*dG*dT*d[5mC]*dT*dG*dG*dA*dA*dT*kA*k[5mC]*kA; antisense) [Compound 715580] | 101
16 | 715598 (antisense k[5mC]*k[5mC]*k[5mC]*dA*dA*dG*d[5mC]*dT*dA*d[5mC]*d[5mC]*d[5mC]*dA*kA*kG*kA) [Compound 715598] | 103
17 | 715541 (k[5mC]*kT*kT*dG*dA*dA*dG*dA*dA*d[5mC]*dT*dA*dT*kT*kT*k[5mC]; antisense) [Compound 715541] | 105
18 | 715607 (antisense kT*k[5mC]*kA*d[5mC]*d[5mC]*dA*dT*dA*dG*d[5mC]*dA*d[5mC]*dA*kG*kA*kA) [Compound 715607] | 116
19 | 715628 (antisense kG*k[5mC]*k[5mC]*dT*dA*d[5mC]*d[5mC]*dT*dG*dA*d[5mC]*dA*dT*kT*kT*kT) [Compound 715628] | 114
20 | 715466 (antisense k[5mC]*kA*kA*dG*dG*dT*d[5mC]*d[5mC]*dA*d[5mC]*dA*dT*dT*kT*kG*kT) [Compound 715466] | 83
21 | 715583 (kG*kG*kG*d[5mC]*d[5mC]*dA*d[5mC]*dA*dA*dA*dA*dT*dA*kA*kA*kA; antisense) [Compound 715583] | 164
22 | 715463 (antisense k[5mC]*kT*kG*dT*dA*dG*d[5mC]*dT*dG*d[5mC]*dT*d[5mC]*dA*kT*kG*k[5mC]) [Compound 715463] | 73
23 | 715499 (antisense kT*kA*kT*dG*dA*dA*d[5mC]*d[5mC]*d[5mC]*dT*dT*dG*dA*kA*kA*kA) [Compound 715499] | 126
24 | 715508 (antisense k[5mC]*kT*kG*dT*dG*d[5mC]*dT*dG*dG*dG*dA*dT*dT*kG*kA*kT) [Compound 715508] | 24
25 | 715595 (antisense kT*k[5mC]*kA*dT*dG*dG*d[5mC]*dT*dG*dA*dA*dA*dT*kG*kA*kA) [Compound 715595] | 104
26 | 715535 (k[5mC]*kT*kA*dT*dT*dA*dA*dG*d[5mC]*dT*dG*dT*dT*kT*kA*kA; antisense) [Compound 715535] | 91

same assay, conditions: Table 2; A-431 cells, free uptake, 2,000 nM, approximately 48 hours, RTS4814; Yap1 mRNA relative to untreated control cells

Row | Substance | YAP1 (% UTC)
27 | 715488 (antisense k[5mC]*kT*kA*dT*dT*dA*d[5mC]*dT*dT*d[5mC]*dA*dT*dA*kG*k[5mC]*kT) [Compound 715488] | 66
28 | 715497 (antisense kA*kA*k[5mC]*d[5mC]*d[5mC]*dT*dT*dG*dA*dA*dA*dA*dT*kA*kA*kG) [Compound 715497] | 155
29 | 715410 (kA*kT*k[5mC]*dA*dG*dT*dA*d[5mC]*dT*dG*dG*d[5mC]*d[5mC]*kT*kG*kT; antisense) [Compound 715410] | 61
30 | 715419 (kG*kA*k[5mC]*d[5mC]*dA*dG*dA*dA*dG*dA*dT*dG*dT*k[5mC]*kT*kT; antisense) [Compound 715419] | 107
31 | 715407 (kG*kG*k[5mC]*dT*dT*dG*dA*dA*dG*dA*dA*dG*dG*kA*kG*kT; antisense) [Compound 715407] | 53
32 | 715470 (antisense kT*k[5mC]*kT*dA*dG*d[5mC]*dT*dT*dG*dG*dT*dG*dG*k[5mC]*kA*kG) [Compound 715470] | 83
33 | 715509 (antisense kT*kG*k[5mC]*dT*dG*dT*dG*d[5mC]*dT*dG*dG*dG*dA*kT*kT*kG) [Compound 715509] | 42
34 | 715506 (antisense kA*kA*kA*dT*dT*dG*dG*dT*dT*dT*dA*dT*dT*kG*kT*kA) [Compound 715506] | 112
35 | 715494 (antisense kG*kA*kG*dG*dT*dG*d[5mC]*dT*dA*dG*d[5mC]*dT*dG*kG*kT*kG) [Compound 715494] | 46
36 | 715512 (antisense kA*kG*kG*d[5mC]*dG*d[5mC]*dG*d[5mC]*dG*d[5mC]*dA*dT*dT*kG*kT*kG) [Compound 715512] | 97
37 | 715545 (kA*k[5mC]*k[5mC]*dA*dA*d[5mC]*dT*dA*d[5mC]*dT*dT*dG*dA*kA*kG*kA; antisense) [Compound 715545] | 87
38 | 715560 (k[5mC]*k[5mC]*k[5mC]*dT*dT*dT*dA*d[5mC]*dA*dA*dA*dA*dA*kT*kA*kG; antisense) [Compound 715560] | 98
